In Sander's compilation of Henry's law constants (doi:10.1021/je300954s):

Assay: Henry solubility constant Hcp at 298.15 K (mol/(m3 Pa))
Details: reference: Lee et al. (2012)

Row | Structure (SMILES) | Henry solubility constant Hcp
1 | CCCCOC(=O)c1ccccc1C(=O)OCc1ccccc1 [butyl benzyl phthalate] | 100
2 | c1ccc2c(c1)ccc1ccccc12 [phenanthrene] | 0.18
3 | c1ccc2c(c1)Cc1ccccc1-2 [2,3-benzindene] | 0.32
4 | CC(=O)c1c(C)c([N+](=O)[O-])c(C(C)(C)C)c([N+](=O)[O-])c1C [musk ketone] | 3
5 | c1cc2c3c(cccc3c1)CC2 [acenaphthene] | 0.26
6 | c1ccc2ccccc2c1 [naphthalene] | 0.06
7 | Clc1cc(Cl)c(Cl)cc1Cl [1,2,4,5-tetrachlorobenzene] | 0.0066
8 | c1ccc2c(c1)cc1ccc3cccc4ccc2c1c34 [benzo[a]pyrene] | 6.2
9 | Cc1c([N+](=O)[O-])c(C)c([N+](=O)[O-])c(C(C)(C)C)c1[N+](=O)[O-] [2,4,6-trinitro-1,3-dimethyl-5-tert-butylbenzene] | 0.32
10 | CCCCOC(=O)c1ccccc1C(=O)OCCCC [dibutyl phthalate] | 9.3
11 | c1ccc2c(c1)ccc1c3ccccc3ccc21 [chrysene] | 2.1
12 | c1ccc2c(c1)-c1cccc3cccc-2c13 [benzo[jk]fluorene] | 0.34
13 | c1ccc2cc3ccccc3cc2c1 [anthracene] | 0.16
14 | Clc1cccc(Cl)c1Cl [1,2,3-trichlorobenzene] | 0.008
15 | c1ccc2cc3c(cc2c1)-c1cccc2cccc-3c12 [benzo[k]fluoranthene] | 10
